One assay has as its target human Gal-3 (hGal-3) (Homo sapiens (Human), UniProt P17931). Briefly: Competitive binding assay: biotinylated hGal-3 binding to microplate-adsorbed asialofetuin (ASF). The settings on record: Activity on hGal-3; binding of biotinylated hGal-3 to ASF-coated plates; mean values. The method, boiled down:
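Serially diluted compounds competed with biotinylated human Gal-3 for binding to plate-adsorbed asialofetuin over 3 h at 4 °C. Bound Gal-3 was detected with streptavidin-peroxidase (80 ng/mL, 1 h, 4 °C) and ABTS substrate. IC50 values are means of several measurements.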

The next assay deals with human Gal-1 (hGal-1). Briefly: Competitive binding assay: biotinylated hGal-1 binding to microplate-adsorbed asialofetuin (ASF). The settings on record: Activity on hGal-1; binding of biotinylated hGal-1 to ASF-coated plates; mean values. The method, boiled down:
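Inhibition measured as loss of hGal-1 (biotinylated, 300–1000 ng/mL, wild type or Cys→Ser mutant) binding to adsorbed asialofetuin over 3 h at 4 °C. Bound lectin detected with streptavidin-HRP and ABTS (410 nm, 30–45 min); IC50 values averaged across repeat measurements.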

The text below walks through data of US12291519B2, “2-hydroxycycloalkane-1-carbamoyl” (Idorsia Pharmaceuticals Ltd, priority 2019, dated 2025).

For orientation: IC50 means the concentration that inhibits the measured activity by half.

human Gal-3 (hGal-3), sequence (P17931 whole entry): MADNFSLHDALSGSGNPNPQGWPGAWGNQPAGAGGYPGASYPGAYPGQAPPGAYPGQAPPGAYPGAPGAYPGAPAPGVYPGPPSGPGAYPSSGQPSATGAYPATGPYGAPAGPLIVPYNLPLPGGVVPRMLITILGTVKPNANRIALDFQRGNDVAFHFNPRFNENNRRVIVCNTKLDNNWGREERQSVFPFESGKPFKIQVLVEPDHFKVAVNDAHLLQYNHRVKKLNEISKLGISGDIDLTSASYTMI
human Gal-1 (hGal-1), sequence (P09382 2-135 limits assumed): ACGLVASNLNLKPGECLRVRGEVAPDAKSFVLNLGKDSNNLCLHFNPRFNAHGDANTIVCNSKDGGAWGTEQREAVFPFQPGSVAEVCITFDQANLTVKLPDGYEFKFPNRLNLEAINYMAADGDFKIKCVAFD

On to `CO[C@@H]1[C@@H](n2cc(-c3cc(F)c(F)c(F)c3)nn2)[C@@H](O)[C@@H](CO)O[C@H]1C(=O)N(c1cccc(C(F)(F)F)c1)[C@H]1CCCC[C@@H]1O` [Example 116, (2R,3R,4S,5R,6R)-5-hydroxy-N-((1S,2S)-2-hydroxycyclohexyl)-6-(hydroxymethyl)-3-methoxy-N-(3-(trifluoromethyl)phenyl)-4-(4-(3,4,5-trifluorophenyl)-1H-1,2,3-triazol-1-yl)tetrahydro-2H-pyran-2-carboxamide], for which the IC50 on human Gal-3 (hGal-3) stood at 0.026 µM; on human Gal-1 (hGal-1) it was 1.95 µM.
The like results for `CO[C@@H]1[C@@H](n2cc(-c3cc(F)c(F)c(F)c3)nn2)[C@@H](O)[C@@H](CO)O[C@H]1C(=O)N(c1cc(F)cc(F)c1)[C@H]1CCCC[C@@H]1O` [Example 117, (2R,3R,4S,5R,6R)-N-(3,5-difluorophenyl)-5-hydroxy-N-((1S,2S)-2-hydroxycyclohexyl)-6-(hydroxymethyl)-3-methoxy-4-(4-(3,4,5-trifluorophenyl)-1H-1,2,3-triazol-1-yl)tetrahydro-2H-pyran-2-carboxamide] were, in that order, 0.038 µM and 0.978 µM.
The like results for `COc1cc(F)cc(N(C(=O)[C@@H]2O[C@H](CO)[C@H](O)[C@H](n3cc(-c4cc(F)c(F)c(F)c4)nn3)[C@H]2OC)[C@H]2CCCC[C@@H]2O)c1` [Example 118, (2R,3R,4S,5R,6R)-N-(3-fluoro-5-methoxyphenyl)-5-hydroxy-N-((1S,2S)-2-hydroxycyclohexyl)-6-(hydroxymethyl)-3-methoxy-4-(4-(3,4,5-trifluorophenyl)-1H-1,2,3-triazol-1-yl)tetrahydro-2H-pyran-2-carboxamide] were, in that order, 0.026 µM and 1.48 µM.
The like results for `CO[C@@H]1[C@@H](n2cc(-c3cc(F)c(F)c(F)c3)nn2)[C@@H](O)[C@@H](CO)O[C@H]1C(=O)N(c1cc(C)cc(F)c1)[C@H]1CCCC[C@@H]1O` [Example 119, (2R,3R,4S,5R,6R)-N-(3-fluoro-5-methylphenyl)-5-hydroxy-N-((1S,2S)-2-hydroxycyclohexyl)-6-(hydroxymethyl)-3-methoxy-4-(4-(3,4,5-trifluorophenyl)-1H-1,2,3-triazol-1-yl)tetrahydro-2H-pyran-2-carboxamide] were, in that order, 0.03 µM and 1.83 µM.
As for `CO[C@@H]1[C@@H](n2cc(-c3cc(F)c(F)c(F)c3)nn2)[C@@H](O)[C@@H](CO)O[C@H]1C(=O)N(c1cc(F)cc(Br)c1)[C@H]1CCCC[C@@H]1O` [Example 120, (2R,3R,4S,5R,6R)-N-(3-bromo-5-fluorophenyl)-5-hydroxy-N-((1S,2S)-2-hydroxycyclohexyl)-6-(hydroxymethyl)-3-methoxy-4-(4-(3,4,5-trifluorophenyl)-1H-1,2,3-triazol-1-yl)tetrahydro-2H-pyran-2-carboxamide], the figures for the IC50 at human Gal-3 (hGal-3) and at human Gal-1 (hGal-1) were 0.021 µM and 0.422 µM, respectively.
The like results for `CO[C@@H]1[C@@H](n2cc(-c3cc(F)c(F)c(F)c3)nn2)[C@@H](O)[C@@H](CO)O[C@H]1C(=O)N(c1cc(F)cc(Cl)c1)[C@H]1CCCC[C@@H]1O` [Example 121, (2R,3R,4S,5R,6R)-N-(3-chloro-5-fluorophenyl)-5-hydroxy-N-((1S,2S)-2-hydroxycyclohexyl)-6-(hydroxymethyl)-3-methoxy-4-(4-(3,4,5-trifluorophenyl)-1H-1,2,3-triazol-1-yl)tetrahydro-2H-pyran-2-carboxamide] were, in that order, 0.019 µM and 0.449 µM.
In the case of `CO[C@@H]1[C@@H](n2cc(-c3cc(F)c(F)c(F)c3)nn2)[C@@H](O)[C@@H](CO)O[C@H]1C(=O)N(c1cccc(C)c1)[C@H]1CCCC[C@@H]1O` [Example 122, (2R,3R,4S,5R,6R)-5-hydroxy-N-((1S,2S)-2-hydroxycyclohexyl)-6-(hydroxymethyl)-3-methoxy-N-(m-tolyl)-4-(4-(3,4,5-trifluorophenyl)-1H-1,2,3-triazol-1-yl)tetrahydro-2H-pyran-2-carboxamide], the IC50 on human Gal-3 (hGal-3) came to 0.043 µM; at human Gal-1 (hGal-1) it was 4.75 µM.
The like results for `CO[C@@H]1[C@@H](n2cc(-c3cc(F)c(F)c(F)c3)nn2)[C@@H](O)[C@@H](CO)O[C@H]1C(=O)N(c1ccc2nc(C)[nH]c2c1)[C@H]1CCCC[C@@H]1O` [Example 123, (2R,3R,4S,5R,6R)-5-hydroxy-N-((1S,2S)-2-hydroxycyclohexyl)-6-(hydroxymethyl)-3-methoxy-N-(2-methyl-1H-benzo[d]imidazol-6-yl)-4-(4-(3,4,5-trifluorophenyl)-1H-1,2,3-triazol-1-yl)tetrahydro-2H-pyran-2-carboxamide] were, in that order, 0.085 µM and 5.88 µM.
For `O=C(CO[C@@H]1[C@@H](n2cc(-c3cc(F)c(F)c(F)c3)nn2)[C@@H](O)[C@@H](CO)O[C@H]1C(=O)N(c1cc(Cl)cc(Cl)c1)[C@H]1CCCC[C@@H]1O)N1CCOCC1` [Example 124, (2R,3R,4S,5R,6R)—N-(3,5-dichlorophenyl)-5-hydroxy-N-((1S,2S)-2-hydroxycyclohexyl)-6-(hydroxymethyl)-3-(2-morpholino-2-oxoethoxy)-4-(4-(3,4,5-trifluorophenyl)-1H-1,2,3-triazol-1-yl)tetrahydro-2H-pyran-2-carboxamide] the same measures were 0.012 µM and 0.226 µM.
The like results for `O=C(CO[C@@H]1[C@@H](n2cc(-c3cc(F)c(F)c(F)c3)nn2)[C@@H](O)[C@@H](CO)O[C@H]1C(=O)N(c1cc(Cl)cc(Cl)c1)[C@H]1CCCC[C@@H]1O)N1CC[C@H](O)C1` [Example 125, (2R,3R,4S,5R,6R)—N-(3,5-dichlorophenyl)-5-hydroxy-N-((1S,2S)-2-hydroxycyclohexyl)-6-(hydroxymethyl)-3-(2-((S)-3-hydroxypyrrolidin-1-yl)-2-oxoethoxy)-4-(4-(3,4,5-trifluorophenyl)-1H-1,2,3-triazol-1-yl)tetrahydro-2H-pyran-2-carboxamide] were, in that order, 0.009 µM and 0.134 µM.
As to `O=C(CO[C@@H]1[C@@H](n2cc(-c3cc(F)c(F)c(F)c3)nn2)[C@@H](O)[C@@H](CO)O[C@H]1C(=O)N(c1cc(Cl)cc(Cl)c1)[C@H]1CCCC[C@@H]1O)N1CC[C@@H](O)C1` [Example 126, (2R,3R,4S,5R,6R)—N-(3,5-dichlorophenyl)-5-hydroxy-N-((1S,2S)-2-hydroxycyclohexyl)-6-(hydroxymethyl)-3-(2-((R)-3-hydroxypyrrolidin-1-yl)-2-oxoethoxy)-4-(4-(3,4,5-trifluorophenyl)-1H-1,2,3-triazol-1-yl)tetrahydro-2H-pyran-2-carboxamide], the IC50 on human Gal-3 (hGal-3) amounted to 0.016 µM; at human Gal-1 (hGal-1), 0.134 µM.
The like results for `O=C(CO[C@@H]1[C@@H](n2cc(-c3cc(F)c(F)c(F)c3)nn2)[C@@H](O)[C@@H](CO)O[C@H]1C(=O)N(c1cc(Cl)cc(Cl)c1)[C@H]1CCCC[C@@H]1O)N1CCC(O)CC1` [Example 127, (2R,3R,4S,5R,6R)—N-(3,5-dichlorophenyl)-5-hydroxy-N-((1S,2S)-2-hydroxycyclohexyl)-6-(hydroxymethyl)-3-(2-(4-hydroxypiperidin-1-yl)-2-oxoethoxy)-4-(4-(3,4,5-trifluorophenyl)-1H-1,2,3-triazol-1-yl)tetrahydro-2H-pyran-2-carboxamide] were, in that order, 0.012 µM and 0.181 µM.
The like results for `O=C(CO[C@@H]1[C@@H](n2cc(-c3cc(F)c(F)c(F)c3)nn2)[C@@H](O)[C@@H](CO)O[C@H]1C(=O)N(c1cc(Cl)cc(Cl)c1)[C@H]1CCCC[C@@H]1O)N1CC(O)C1` [Example 128] were, in that order, 0.013 µM and 0.177 µM.
For `CO[C@@H]1[C@@H](n2cc(-c3cc(F)c(F)c(Cl)c3)nn2)[C@@H](O)[C@@H](CO)O[C@H]1C(=O)N(c1cc(Cl)cc(Cl)c1)[C@H]1CCCC[C@@H]1O` [Example 129, (2R,3R,4S,5R,6R)-4-(4-(3-chloro-4,5-difluorophenyl)-1H-1,2,3-triazol-1-yl)-N-(3,5-dichlorophenyl)-5-hydroxy-N-((1S,2S)-2-hydroxycyclohexyl)-6-(hydroxymethyl)-3-methoxytetrahydro-2H-pyran-2-carboxamide] the same measures were 0.032 µM and 0.141 µM.
As to `CO[C@@H]1[C@@H](n2cc(-c3cc(F)c(F)c(Cl)c3)nn2)[C@@H](O)[C@@H](CO)O[C@H]1C(=O)N(c1ccc(F)c(F)c1)[C@H]1CCCC[C@@H]1O` [Example 130, (2R,3R,4S,5R,6R)-4-(4-(3-chloro-4,5-difluorophenyl)-1H-1,2,3-triazol-1-yl)-N-(3,4-difluorophenyl)-5-hydroxy-N-((1S,2S)-2-hydroxycyclohexyl)-6-(hydroxymethyl)-3-methoxytetrahydro-2H-pyran-2-carboxamide], the IC50 stood at 0.053 µM at human Gal-3 (hGal-3) and 0.924 µM at human Gal-1 (hGal-1).
The like results for `CO[C@@H]1[C@@H](n2cc(-c3cc(F)c(F)c(Cl)c3)nn2)[C@@H](O)[C@@H](CO)O[C@H]1C(=O)N(c1ccc2ncsc2c1)[C@H]1CCCC[C@@H]1O` [Example 131, (2R,3R,4S,5R,6R)-N-(benzo[d]thiazol-6-yl)-4-(4-(3-chloro-4,5-difluorophenyl)-1H-1,2,3-triazol-1-yl)-5-hydroxy-N-((1S,2S)-2-hydroxycyclohexyl)-6-(hydroxymethyl)-3-methoxytetrahydro-2H-pyran-2-carboxamide] were, in that order, 0.034 µM and 0.224 µM.
For `CO[C@@H]1[C@@H](n2cc(-c3cc(F)c(F)c(Cl)c3)nn2)[C@@H](O)[C@@H](CO)O[C@H]1C(=O)N(c1cc(Cl)cc(C#N)c1)[C@H]1CCCC[C@@H]1O` [Example 132, (2R,3R,4S,5R,6R)-4-(4-(3-chloro-4,5-difluorophenyl)-1H-1,2,3-triazol-1-yl)-N-(3-chloro-5-cyanophenyl)-5-hydroxy-N-((1S,2S)-2-hydroxycyclohexyl)-6-(hydroxymethyl)-3-methoxytetrahydro-2H-pyran-2-carboxamide] the same measures were 0.013 µM and 0.14 µM.
